Assay results published in a melting point compilation (Tetko et al.; mined from patent text by program, amines drawn as free bases though some values may be those of a salt).

| Compound | melting point [°C] |
| --- | --- |
| CCCCc1nc2ccccc2n1Cc1ccc(-c2ccccc2C2SC(=O)NC2=O)cc1 (stereo not drawn) | 162 to 163 |
| CC(=O)NCC1CN(c2ccc(N3CCN(c4nc5ccc(F)cc5o4)CC3)c(F)c2)C(=O)O1 (stereo not drawn) | 233 to 234 |
| Nc1ccc(S(=O)(=O)c2cc(C3CC3)nc(N3CCCC3)c2)cc1 | 216 to 218 |
| COc1cc2c(Nc3cc(CN4CCCC4)c(O)c(CN4CCCC4)c3)ncnc2c(OC)c1OC | 189 to 191 |
| CCCCOC(=O)CCC(C)(c1ccc(O)c(C(C)(C)C)c1)c1ccc(O)c(C(C)(C)C)c1 | 123 |
| NC(=O)Cc1ccc(-c2ccc(C(CC3CCOCC3)c3ccc(S(=O)(=O)C4CC4)cc3)[nH]2)nc1 (stereo not drawn) | 151 to 153 |
| Brc1ccc2sc(-c3ccccc3)c(N3CCN(Cc4ccccc4)CC3)c2c1 | 156 to 157 |
| CNC(=S)C1(c2cnccn2)CCCS1 (stereo not drawn) | 127 |
| O=[N+]([O-])c1cccc(CSc2nc3cnccc3[nH]2)c1 | 208 to 210 |
| CCCC(CCC)n1c(CC)nc2c1c(=O)n(C)c(=O)n2-c1c(OC)ccnc1C | 124 to 126 |
| COCCn1c2cc(CCO)c(OC)cc2c2c3c(c(-c4ccccc4Cl)cc21)C(=O)NC3=O | 271 to 273 |
| CCOCc1nc2c(N)nc3cc(-c4ccsc4)ccc3c2n1CC(C)(C)O | 204 to 205 |
| Cc1nc(N)c2nc(C)n(CCOCCN)c2c1C | 130 to 133 |
| COc1cc2c(cc1OCc1ccccc1)C(C#N)(Sc1ccccc1)C2 (stereo not drawn) | 109 to 110 |
| Cc1c(-c2ccccc2)c2c(c3c1[nH]c1ccc(O)cc13)C(=O)NC2=O | 270 to 280 |
| CC(C)OC(=O)Cn1c(=O)n(C)c(=O)n(-c2cc(N=c3sc(=S)n4n3CCCCC4)c(F)cc2Cl)c1=O | 108 to 118 |
| C(=Nc1c2c(nc3ccccc13)CCCC2)c1ccccc1 | 168 to 169 |
| O=[N+]([O-])c1cc(F)c(Cl)c(Br)c1Cl | 51 to 53.5 |
| OCc1ccc2nc3c(cc2c1)-c1cccc2cccc-3c12 | 215 to 218 |
| COc1ccc(-c2cc(-c3ccccc3)[nH]c2C(=O)NCc2ccc(C(=O)NO)cc2)cc1OC | 134 to 136 |
| CCC1c2ccc(C#N)n2-c2ccc(F)cc2N1S(=O)(=O)c1ccc(OC)c(C)c1 (stereo not drawn) | 196 to 199 |
| N#CC1(Nc2ccccc2)CCN([C@H]2CCc3ccccc32)CC1 | 157 to 160 |
| COC(=O)n1nc2nc3n(c(=O)c2c1N)CCS3 | 200 to 203 |
| O=C(O)CCCC(=O)N1C2CCC(C2)C1C(=O)O (stereo not drawn) | 155 to 159 |

| Compound | melting point [°C] |
| --- | --- |
| CCCN/C(C)=C(/C#N)C(N)=S | 149 to 151 |
| Cc1nc(NC(=O)OCc2ccccc2)c2n1-c1ccc(Cl)cc1C(c1ccccc1F)=NC2 | 250 to 253 |
| COc1ccc(-c2nccc(N)n2)cc1 | 102 to 104 |
| O=C(O)c1ncc2[nH]c3c([N+](=O)[O-])cc([N+](=O)[O-])cc3c2n1 | 269 to 272 |
| CCCCCCCCS(=O)(=O)c1ccc(C#N)c(C#N)c1 | 70 to 71 |
| O=C(O)c1cc2c(c(C(=O)O)c1)NCCCC2 | 287 to 288 |
| OCc1ncc2n1-c1ccc(Cl)cc1C(c1ccccc1F)=NC2 | 258 to 260 |
| CC12CC(=CO)C(=O)C=C1CCC1C2CCC2(C)C1C=CC2(C)O (stereo not drawn) | 176 |
| O=C(Nc1ccc(Cl)cc1)N[C@H]1C[C@H](C(=O)O)Nc2cc(Cl)cc(Cl)c21 (relative stereo) | 199 to 200 |
| Cc1noc(C)c1-c1cnc2c(c1)N(Cc1c(F)ccc(F)c1Cl)CCN2 | 215 to 216 |
| Cc1cccc2nc(CSc3ncnc4[nH]cnc34)n(-c3ccccc3F)c(=O)c12 | 152 |
| CON(C(=O)c1cn(C)nc1C(F)(F)F)C(CF)Cc1c(Cl)cc(Cl)cc1Cl (stereo not drawn) | 131 to 133 |
| Brc1ccc2cc(SN3CCN(c4ccncc4)CC3)ccc2c1 | 200 to 202 |
| O=c1[nH]c2cc(C(F)(F)F)ccc2n1CCN1CCN(C(c2ccccc2)c2ccccc2)CC1 | 164 |
| Nc1nc2c(nc(C#Cc3ccc(C(F)(F)F)cc3)n2C2OC(CO)C(O)C2O)c(=O)[nH]1 (stereo not drawn) | > 240 |
| COc1ccc(-c2cncn2-c2ccc(S(=O)(=O)NC(C)(C)C)cc2)cc1F | 229 to 232 |
| O=c1ccoc(C=Cc2ccc(O)cc2)c1 | 198 to 201 |
| Cc1nc(N)nc(N)c1-c1cc(Cl)cc(Cl)c1Cl | 236 to 238 |
| COc1ccccc1N1CCN(CCCOc2ccc(-c3cn4cccnc4n3)cc2)CC1 | 156 to 158 |
| O=C1c2ccc(N=C(c3ccccc3)N3CCCCC3)cc2C(=O)c2ccc(N=C(c3ccccc3)N3CCCCC3)cc21 | 264 to 266 |
| Fc1ccccc1-c1c(OCc2ncnn2CC(F)F)nn2c(-c3ccccc3F)nncc12 | 179 to 180 |
| O=c1cc(-c2ccoc2)c2ccc(COc3cc(F)cc(-c4ccccc4)c3)cc2o1 | 105 to 107 |
| CCOCc1nc2c(N)nc3cc(CCC(=O)N4CCOCC4)ccc3c2n1CC(C)(C)O | 118 to 119 |

Second part, the compound after the results:

| melting point [°C] | Compound |
| --- | --- |
| 310 to 312 | O=c1[nH]c2ccccc2c2c(CCO)n(-c3ccccc3)nc12 |
| 114 to 117 | Cc1c(-c2ccccc2)sc2ncc(C(=O)C(C)C)c(O)c12 |
| 126 | Cc1cccc(O)c1S(N)(=O)=O |
| 125 to 127 | CCCC(=O)OCC(CO)CCn1cnc2cnc(N)nc21 (stereo not drawn) |
| 158 to 161 | CC(C)CN1CCC2(CC1)CSC1=C(O2)c2ccccc2C(=O)C1=O |
| 262 to 263 | CC(C)c1ccc(S(=O)(=O)NC(=O)Cc2ccc3c(c2)OCO3)cc1 |
| 214 to 216 | Cc1cc(O)n2nc(SCc3ccccc3)nc2c1 |
| 205 to 208 | CCOC(=O)c1sc(N)nc1-c1ccc(F)cc1 |
| 35 to 38 | CCOC(=O)Cc1cccc(NC=O)n1 |
| 158 to 161 | CC(=O)c1ccc(N)c(C(=O)c2ccccc2)c1 |
| 48 | COC(C)(OC)C(=O)CCCCCCOc1ccc(-c2ccccc2)cc1 |
| 134 to 135 | CNC(=O)N(Cc1ccc(OCCc2nc(-c3ccccc3)oc2C)cc1)OC(=O)OC |
| 86 to 87 | CCCNC(=O)C1CC(=O)N(Cc2ccccc2)C1 (stereo not drawn) |
| 67 to 69 | CCOC(=O)c1oc2cccc(C(C)OC)c2c1C (stereo not drawn) |
| 189 | O=C(Nc1ccc(OC(F)(F)F)cc1)c1ccccc1NCc1ccc(=O)[nH]c1 |
| 86 to 88 | CSC1=C(c2ccccc2)C(=O)N(Nc2ccccc2)C1=O |
| 165 | CO/N=C(/C)c1cccc(NC(=O)NCC(=O)N(CC(=O)N(C)c2ccccc2)c2ccccc2)c1 |
| 93 to 95 | CC(=O)OCc1nc([N+](=O)[O-])cn1C |
| 113 to 114 | Cc1cc(Oc2cccc(C(F)(F)F)c2)nn1C(=O)Nc1ccc(Cl)cc1Cl |
| 161 to 162 | COC(=O)C(=O)c1c(OC)cc(OCCOc2ccc3ccccc3c2)cc1OC |
| 63 to 66 | C[C@H](N)C(=O)Nn1cccc1 |
| 132 to 133 | Cc1cc2c(s1)Oc1ccccc1N=C2N1CCN(C)CC1 |
| 189 to 190 | CNC(=O)c1cc(F)ccc1CNC(=O)c1nc2n(c(=O)c1OCc1ccccc1)CCOC2 |
| 53 to 54 | CCOC(=O)c1cc([N+](=O)[O-])ccc1F |
| 41 to 43 | C=CCN(CC=C)C(=O)n1cnc(S(=O)CC)n1 (stereo not drawn) |
| 121 | CC(c1cccc(Cl)c1)(n1ccnc1)C1(O)C2CC3CC(C2)CC1C3 (stereo not drawn) |

| melting point [°C] | Compound |
| --- | --- |
| 216 to 218 | CC(=O)Nc1c(C)nc(N)c(C(=O)NNS(=O)(=O)c2ccccc2)c1C |
| 106 to 108 | Cc1ccc(S(=O)(=O)n2ccc3cc(F)ccc32)cc1 |
| 88 to 90 | CCOP(=O)(Cc1ccc(NC(=O)CCc2conc2-c2ccc(Cl)cc2)cc1)OCC |
| 146 to 149 | CC(C)NC(=O)c1cc(-n2c(=O)cc(C(F)(F)F)n(C)c2=O)c(F)cc1Cl |
| 187 to 189 | Cc1ccc(F)cc1C(=O)Nc1ccc(C(=O)N2Cc3ccccc3Oc3ncccc32)cn1 |
| 286 to 289 | Cc1c(-c2ccccc2)sc2c1c(=O)c(C(=O)O)cn2Cc1c(F)cccc1F |
| 138 to 140 | COc1ccccc1CNc1cccc(-c2ccnc3c(C(=O)c4cccs4)cnn23)c1 |
| 90 to 91 | Cc1ccc(NC(=O)OC(C)(C)C)c(C)c1 |
| 121 to 124 | COC(=O)c1snc(-c2cc(OC)c(Cl)cc2F)c1N |
| 156 to 157 | CCOC(Nc1ccccc1)(OCC)c1cc(C(=O)c2ccc(Cl)cc2)nc(C)c1Cl |
| 87 to 92 | CCOC(=NC(=O)c1ccco1)N1Cc2ccccc2-c2ccccc2C1 |
| 157 to 161 | COC(=O)c1ccccc1S(=O)(=O)NC(=O)Nc1nc(F)cc(OC(F)(F)F)n1 |
| 238 | CCNS(=O)(=O)c1ccc(N2N=C(C)C(=CNc3ccccc3OCC)C2=O)cc1 |
| 187 to 189 | CC(=O)NC[C@H]1CN(c2ccc(C3C=CS(=O)(=O)CC3)cc2)C(=O)O1 (stereo partly drawn) |
| 96.5 to 97.5 | O=C1c2cccc3cccc(c23)C(=O)N1CCCCCO |
| 174 | Cn1c(=O)cc(-c2cccc(Cl)c2)c2cc(C(=O)c3ccc([N+](=O)[O-])cc3)ccc21 |
| 160 | O=C(NCC1CCN(CC2(C(=O)O)CCCCC2)CC1)N1C(=O)C2(CCCC2)c2ccccc21 |
| 210 to 212 | Cc1ccnc(-c2ccccc2)c1C(=O)O |
| 120 to 122 | CCOC(Cc1ccc(OCCN2CCSc3ccccc32)cc1)C(N)=O (stereo not drawn) |
| 74 to 80 | COC(=O)C1=C(C)NC(C)=C(C(=O)OCCN2CCN(C(c3ccccc3)c3ccccc3)CC2)C1c1cccc(Cl)c1 (stereo not drawn) |
| 170 to 172 | CCOC(=O)C1SCCN1C(=S)Nc1cc(Cl)cc(Cl)c1 (stereo not drawn) |
| 186 to 189 | CC(C)(C)NCC(O)COc1ccccc1-c1ccc(=S)[nH]n1 (stereo not drawn) |
| 284 to 287 | CCc1cccc(-n2cnc(-c3cnc4[nH]cc(C(=O)N[C@@H](C)C(C)(C)C)c4n3)c2)c1 |
| 122 to 126 | COC(=O)ONC(=N)Nc1ccc(C(=O)OC(C)(C)C)cc1 |
| 230 to 232 | Cn1cc(C2=C(c3ccccc3)C(=O)NC2=O)c2ccccc21 |
